Test system: 885512-296-R-J2-PDC complex spheroid growth, % test/control
Experiment: Anticancer human tumor 885512-296-R-J2-PDC patient-derived breast carcinoma cell line growth inhibition [Asc]
Conditions: for IC50: curve of first compound; for viability, T/C: stronger effect = lower value
Summary of the method: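 Spheroid model: tumor line + HUVEC + hMSC. Single agents and combinations; top conc. at/near clinical Cmax (10 microM if undetermined), half-log dilutions. DMSO stocks at 800-fold test concentration.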

[1] = second compound 0.1 µM, first compound 0.0316 µM
[2] = second compound 0.1 µM, first compound 0.1 µM
[3] = second compound 0.1 µM, first compound 0.316 µM
[4] = second compound 0.1 µM, first compound 1 µM
[5] = second compound 0.1 µM, first compound 3.16 µM
[6] = second compound 0.1 µM, first compound 10 µM
[7] = second compound 0.316 µM, first compound 0.0316 µM
[8] = second compound 0.316 µM, first compound 0.1 µM
[9] = second compound 0.316 µM, first compound 0.316 µM
[10] = second compound 0.316 µM, first compound 1 µM
[11] = second compound 0.316 µM, first compound 3.16 µM
[12] = second compound 0.316 µM, first compound 10 µM
[13] = second compound 1 µM, first compound 0.0316 µM
[14] = second compound 1 µM, first compound 0.1 µM
[15] = second compound 1 µM, first compound 0.316 µM
[16] = second compound 1 µM, first compound 1 µM
[17] = second compound 1 µM, first compound 3.16 µM
[18] = second compound 1 µM, first compound 10 µM
[19] = second compound 3.16 µM, first compound 0.0316 µM
[20] = second compound 3.16 µM, first compound 0.1 µM
[21] = second compound 3.16 µM, first compound 0.316 µM
[22] = second compound 3.16 µM, first compound 1 µM
[23] = second compound 3.16 µM, first compound 3.16 µM
[24] = second compound 3.16 µM, first compound 10 µM
[25] = second compound 10 µM, first compound 0.0316 µM
[26] = second compound 10 µM, first compound 0.1 µM
[27] = second compound 10 µM, first compound 0.316 µM
[28] = second compound 10 µM, first compound 1 µM
[29] = second compound 10 µM, first compound 3.16 µM
[30] = second compound 10 µM, first compound 10 µM
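Note: spheroids exposed to compounds for seven days.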
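Throughout, for viability, T/C: 100% = DMSO vehicle control wells.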

C#Cc1c(F)ccc2cc(O)cc(-c3ncc4c(N5CC6CCC(C5)N6)nc(OCC56CCCN5CC(F)C6)nc4c3F)c12 (stereo not given) + Cc1c(S(C)(=O)=O)c(-c2cc(F)cc(N3CCN(c4ccc(NS(=O)(=O)c5ccc(NC(CCN6CCC(C(=O)OCCCP(=O)(O)O)CC6)CSc6ccccc6)c(S(=O)(=O)C(F)(F)F)c5)cc4)CC3)c2)c(-c2ccc(Cl)cc2)n1C(C)C
IC50 (second compound 0.1 µM): > 10000 nM | IC50 (second compound 0.316 µM): > 10000 nM | IC50 (second compound 1 µM): > 10000 nM | IC50 (second compound 3.16 µM): > 10000 nM | IC50 (second compound 10 µM): > 10000 nM | viability, T/C [1]: 96.9% | viability, T/C [2]: 78.9% | viability, T/C [3]: 85.1% | viability, T/C [4]: 77.4% | viability, T/C [5]: 74.1% | viability, T/C [6]: 70.9% | viability, T/C [7]: 96.8% | viability, T/C [8]: 105% | viability, T/C [9]: 90.9% | viability, T/C [10]: 72.4% | viability, T/C [11]: 95.4% | viability, T/C [12]: 71% | viability, T/C [13]: 88.3% | viability, T/C [14]: 82.9% | viability, T/C [15]: 93% | viability, T/C [16]: 66.6% | viability, T/C [17]: 86% | viability, T/C [18]: 66.9% | viability, T/C [19]: 88.3% | viability, T/C [20]: 112% | viability, T/C [21]: 82.7% | viability, T/C [22]: 76.5% | viability, T/C [23]: 79.8% | viability, T/C [24]: 76.4% | viability, T/C [25]: 115% | viability, T/C [26]: 112% | viability, T/C [27]: 101% | viability, T/C [28]: 117% | viability, T/C [29]: 103% | viability, T/C [30]: 51.4%

C=C(F)C(=O)N1CCN(c2nc(OCC3CCCN3C)nc3c2CCN(c2cccc4cccc(Cl)c24)C3)CC1CC#N (stereo not given) + Cc1c(S(C)(=O)=O)c(-c2cc(F)cc(N3CCN(c4ccc(NS(=O)(=O)c5ccc(NC(CCN6CCC(C(=O)OCCCP(=O)(O)O)CC6)CSc6ccccc6)c(S(=O)(=O)C(F)(F)F)c5)cc4)CC3)c2)c(-c2ccc(Cl)cc2)n1C(C)C
IC50 (second compound 0.1 µM): 1870 nM | IC50 (second compound 0.316 µM): 1920 nM | IC50 (second compound 1 µM): 1910 nM | IC50 (second compound 3.16 µM): 1820 nM | IC50 (second compound 10 µM): 2140 nM | viability, T/C [1]: 85.7% | viability, T/C [2]: 91% | viability, T/C [3]: 93.2% | viability, T/C [4]: 85.9% | viability, T/C [5]: 19.7% | viability, T/C [6]: 0.11% | viability, T/C [7]: 76.3% | viability, T/C [8]: 96.2% | viability, T/C [9]: 95% | viability, T/C [10]: 90.5% | viability, T/C [11]: 19.7% | viability, T/C [12]: 0.13% | viability, T/C [13]: 83.2% | viability, T/C [14]: 84.9% | viability, T/C [15]: 97.1% | viability, T/C [16]: 91.5% | viability, T/C [17]: 19.5% | viability, T/C [18]: 0.12% | viability, T/C [19]: 101% | viability, T/C [20]: 90.3% | viability, T/C [21]: 92.1% | viability, T/C [22]: 82.6% | viability, T/C [23]: 20.3% | viability, T/C [24]: 0.12% | viability, T/C [25]: 115% | viability, T/C [26]: 107% | viability, T/C [27]: 96.5% | viability, T/C [28]: 100% | viability, T/C [29]: 24.4% | viability, T/C [30]: 0.18%

CCN1C(C(=O)NC23CCC(C(=O)O)(CC2)CC3)C(c2cccc(Cl)c2F)C2(C(=O)Nc3cc(Cl)ccc32)C12CCCCC2 (stereo not given) + Cc1c(S(C)(=O)=O)c(-c2cc(F)cc(N3CCN(c4ccc(NS(=O)(=O)c5ccc(NC(CCN6CCC(C(=O)OCCCP(=O)(O)O)CC6)CSc6ccccc6)c(S(=O)(=O)C(F)(F)F)c5)cc4)CC3)c2)c(-c2ccc(Cl)cc2)n1C(C)C
IC50 (second compound 0.1 µM): 2460 nM | IC50 (second compound 0.316 µM): 1820 nM | IC50 (second compound 1 µM): 2370 nM | IC50 (second compound 3.16 µM): > 3000 nM | IC50 (second compound 10 µM): > 3000 nM | viability, T/C (second compound 0.1 µM, first compound 0.00949 µM): 90.8% | viability, T/C (second compound 0.1 µM, first compound 0.03 µM): 96.3% | viability, T/C (second compound 0.1 µM, first compound 0.0949 µM): 99.4% | viability, T/C (second compound 0.1 µM, first compound 0.3 µM): 72.8% | viability, T/C (second compound 0.1 µM, first compound 0.949 µM): 73.8% | viability, T/C (second compound 0.1 µM, first compound 3 µM): 45.1% | viability, T/C (second compound 0.316 µM, first compound 0.00949 µM): 86.7% | viability, T/C (second compound 0.316 µM, first compound 0.03 µM): 101% | viability, T/C (second compound 0.316 µM, first compound 0.0949 µM): 99.6% | viability, T/C (second compound 0.316 µM, first compound 0.3 µM): 80.8% | viability, T/C (second compound 0.316 µM, first compound 0.949 µM): 64.4% | viability, T/C (second compound 0.316 µM, first compound 3 µM): 39.8% | viability, T/C (second compound 1 µM, first compound 0.00949 µM): 103% | viability, T/C (second compound 1 µM, first compound 0.03 µM): 79.3% | viability, T/C (second compound 1 µM, first compound 0.0949 µM): 85% | viability, T/C (second compound 1 µM, first compound 0.3 µM): 71.9% | viability, T/C (second compound 1 µM, first compound 0.949 µM): 67.1% | viability, T/C (second compound 1 µM, first compound 3 µM): 42% | viability, T/C (second compound 3.16 µM, first compound 0.00949 µM): 109% | viability, T/C (second compound 3.16 µM, first compound 0.03 µM): 100% | viability, T/C (second compound 3.16 µM, first compound 0.0949 µM): 98.6% | viability, T/C (second compound 3.16 µM, first compound 0.3 µM): 95.4% | viability, T/C (second compound 3.16 µM, first compound 0.949 µM): 78% | viability, T/C (second compound 3.16 µM, first compound 3 µM): 52.4% | viability, T/C (second compound 10 µM, first compound 0.00949 µM): 129% | viability, T/C (second compound 10 µM, first compound 0.03 µM): 101% | viability, T/C (second compound 10 µM, first compound 0.0949 µM): 119% | viability, T/C (second compound 10 µM, first compound 0.3 µM): 124% | viability, T/C (second compound 10 µM, first compound 0.949 µM): 112% | viability, T/C (second compound 10 µM, first compound 3 µM): 79.6%

CNC(C)C(=O)NC1CN(S(=O)(=O)c2cccc(S(=O)(=O)N3CCC4CCC(C(=O)NC(c5ccccc5)c5ccccc5)N4C(=O)C(NC(=O)C(C)NC)C3)c2)CCC2CCC(C(=O)NC(c3ccccc3)c3ccccc3)N2C1=O (stereo not given) + Cc1c(S(C)(=O)=O)c(-c2cc(F)cc(N3CCN(c4ccc(NS(=O)(=O)c5ccc(NC(CCN6CCC(C(=O)OCCCP(=O)(O)O)CC6)CSc6ccccc6)c(S(=O)(=O)C(F)(F)F)c5)cc4)CC3)c2)c(-c2ccc(Cl)cc2)n1C(C)C
IC50 (second compound 0.1 µM): > 1000 nM | IC50 (second compound 0.316 µM): > 1000 nM | IC50 (second compound 1 µM): > 1000 nM | IC50 (second compound 3.16 µM): > 1000 nM | IC50 (second compound 10 µM): > 1000 nM | viability, T/C (second compound 0.1 µM, first compound 0.00316 µM): 78.5% | viability, T/C (second compound 0.1 µM, first compound 0.01 µM): 89.6% | viability, T/C [1]: 89.2% | viability, T/C [2]: 101% | viability, T/C [3]: 116% | viability, T/C [4]: 88.8% | viability, T/C (second compound 0.316 µM, first compound 0.00316 µM): 80.1% | viability, T/C (second compound 0.316 µM, first compound 0.01 µM): 92.6% | viability, T/C [7]: 107% | viability, T/C [8]: 93.5% | viability, T/C [9]: 106% | viability, T/C [10]: 109% | viability, T/C (second compound 1 µM, first compound 0.00316 µM): 90% | viability, T/C (second compound 1 µM, first compound 0.01 µM): 100% | viability, T/C [13]: 112% | viability, T/C [14]: 102% | viability, T/C [15]: 107% | viability, T/C [16]: 109% | viability, T/C (second compound 3.16 µM, first compound 0.00316 µM): 94.7% | viability, T/C (second compound 3.16 µM, first compound 0.01 µM): 92.7% | viability, T/C [19]: 99.2% | viability, T/C [20]: 102% | viability, T/C [21]: 112% | viability, T/C [22]: 95.2% | viability, T/C (second compound 10 µM, first compound 0.00316 µM): 112% | viability, T/C (second compound 10 µM, first compound 0.01 µM): 103% | viability, T/C [25]: 91.5% | viability, T/C [26]: 98% | viability, T/C [27]: 100% | viability, T/C [28]: 105%
